This experiment relates to KB. Put plainly: Cytotoxicity against human KB cells. It counts as functional. The following applies: read-out: ED50 (the source's name).

Molecules are shown by their SMILES. In brackets after ≈: the same amount, converted by molar mass.

For the molecule `C=C(C)C(=O)O[C@H]1C/C(CO)=C/CC[C@@]2(C)O[C@H]2[C@H]2OC(=O)C(=C)[C@@H]21` [TOMENPHANTIN A], the EC50 is 3 µg/mL (≈ 8.61 µM).
Next, `C=C(C)C(=O)O[C@H]1C/C(C=O)=C/CC[C@@]2(C)O[C@H]2[C@H]2OC(=O)C(=C)[C@@H]21` [TOMENPHANTIN B]: 2.7 µg/mL (≈ 7.79 µM).
